Reference: ChEMBL document CHEMBL4507261, “Data for DCP probe A-192621” (2021)

Columns and labels:
[1] = molecular target: Casein kinase II subunit alpha (Homo sapiens) (UniProt P68400); details: Compound concentration 1000.0 nM
[2] = molecular target: Delta-type opioid receptor (Homo sapiens) (UniProt P41143); assay: delta (DOP) (h) Eurofins-Cerep binding assay; parameters: ligand concentration 0.5 nM; details: filed as agonist, Compound concentration 10.0 uM
[3] = molecular target: Calcium/calmodulin-dependent protein kinase type II subunit alpha (Homo sapiens) (UniProt Q9UQM7); details: Compound concentration 1000.0 nM
[4] = molecular target: Focal adhesion kinase 1 (Homo sapiens) (UniProt Q05397); details: Compound concentration 1000.0 nM
[5] = molecular target: Serine/threonine-protein kinase 16 (Homo sapiens) (UniProt O75716); details: Compound concentration 1000.0 nM
[6] = molecular target: T1, Muscarinic acetylcholine receptor M5 (Homo sapiens) (UniProt P08912); assay: M5 (h) Eurofins-Cerep binding assay; parameters: ligand concentration 0.3 nM; details: filed as antagonist, Compound concentration 10.0 uM
T1 sequence (whole entry): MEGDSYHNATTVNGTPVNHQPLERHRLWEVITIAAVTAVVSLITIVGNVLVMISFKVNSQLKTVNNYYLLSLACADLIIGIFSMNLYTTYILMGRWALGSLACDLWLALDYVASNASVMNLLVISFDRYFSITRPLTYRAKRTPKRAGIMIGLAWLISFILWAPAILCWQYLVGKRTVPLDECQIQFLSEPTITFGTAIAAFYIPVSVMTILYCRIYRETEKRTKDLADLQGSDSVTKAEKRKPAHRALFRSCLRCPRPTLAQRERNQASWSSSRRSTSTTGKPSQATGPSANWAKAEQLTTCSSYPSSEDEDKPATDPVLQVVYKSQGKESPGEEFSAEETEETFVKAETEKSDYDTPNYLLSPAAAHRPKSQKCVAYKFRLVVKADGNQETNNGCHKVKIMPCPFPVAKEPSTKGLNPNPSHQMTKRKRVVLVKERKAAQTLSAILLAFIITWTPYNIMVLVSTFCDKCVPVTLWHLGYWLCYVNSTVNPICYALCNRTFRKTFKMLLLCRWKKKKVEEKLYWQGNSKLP

[7] = molecular target: Cyclin-dependent kinase 4 (Homo sapiens) (UniProt P11802); details: Compound concentration 1000.0 nM
[8] = molecular target: Interleukin-1 receptor-associated kinase 4 (Homo sapiens) (UniProt Q9NWZ3); details: Compound concentration 1000.0 nM
[9] = molecular target: Serine/threonine-protein kinase BRSK2 (Homo sapiens) (UniProt Q8IWQ3); details: Compound concentration 1000.0 nM
[10] = molecular target: Serine/threonine-protein kinase RIO1 (Homo sapiens) (UniProt Q9BRS2); details: Compound concentration 1000.0 nM
Serine/threonine-protein kinase RIO1 (Homo sapiens), sequence (Q9BRS2 whole entry): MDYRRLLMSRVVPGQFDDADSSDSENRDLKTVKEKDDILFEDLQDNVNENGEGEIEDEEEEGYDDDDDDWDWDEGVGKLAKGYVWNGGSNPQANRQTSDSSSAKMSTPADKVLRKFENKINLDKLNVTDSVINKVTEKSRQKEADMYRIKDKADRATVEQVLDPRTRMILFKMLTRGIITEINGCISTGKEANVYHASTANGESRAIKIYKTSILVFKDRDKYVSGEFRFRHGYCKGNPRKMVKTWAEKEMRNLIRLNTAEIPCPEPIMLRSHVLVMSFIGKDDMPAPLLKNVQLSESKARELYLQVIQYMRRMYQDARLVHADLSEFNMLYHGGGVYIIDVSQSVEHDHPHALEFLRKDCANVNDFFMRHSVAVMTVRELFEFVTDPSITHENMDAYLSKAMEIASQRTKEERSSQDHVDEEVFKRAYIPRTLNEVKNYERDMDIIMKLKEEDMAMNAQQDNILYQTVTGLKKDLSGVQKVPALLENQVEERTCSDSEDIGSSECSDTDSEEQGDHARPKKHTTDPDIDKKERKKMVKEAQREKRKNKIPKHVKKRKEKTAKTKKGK

[11] = molecular target: Calcium/calmodulin-dependent protein kinase type II subunit gamma (Homo sapiens) (UniProt Q13555); details: Compound concentration 1000.0 nM
[12] = molecular target: Serine/threonine-protein kinase Chk1 (Homo sapiens) (UniProt O14757); details: Compound concentration 1000.0 nM
Serine/threonine-protein kinase Chk1 (Homo sapiens), sequence (O14757 whole entry): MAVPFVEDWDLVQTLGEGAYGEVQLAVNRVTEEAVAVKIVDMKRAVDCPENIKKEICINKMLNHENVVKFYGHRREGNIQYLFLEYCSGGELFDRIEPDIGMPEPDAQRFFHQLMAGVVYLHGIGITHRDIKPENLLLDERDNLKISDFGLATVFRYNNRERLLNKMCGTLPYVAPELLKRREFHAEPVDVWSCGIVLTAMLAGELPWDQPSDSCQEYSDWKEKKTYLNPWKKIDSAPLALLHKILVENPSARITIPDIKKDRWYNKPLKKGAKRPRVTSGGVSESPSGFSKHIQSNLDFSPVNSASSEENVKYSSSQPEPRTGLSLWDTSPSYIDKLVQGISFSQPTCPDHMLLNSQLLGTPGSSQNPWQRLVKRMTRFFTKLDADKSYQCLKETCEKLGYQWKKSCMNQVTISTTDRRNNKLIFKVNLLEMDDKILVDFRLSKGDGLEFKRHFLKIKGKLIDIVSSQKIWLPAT

[13] = molecular target: Bone morphogenetic protein receptor type-2 (Homo sapiens) (UniProt Q13873); details: Compound concentration 1000.0 nM
Bone morphogenetic protein receptor type-2 (Homo sapiens), sequence (Q13873 whole entry): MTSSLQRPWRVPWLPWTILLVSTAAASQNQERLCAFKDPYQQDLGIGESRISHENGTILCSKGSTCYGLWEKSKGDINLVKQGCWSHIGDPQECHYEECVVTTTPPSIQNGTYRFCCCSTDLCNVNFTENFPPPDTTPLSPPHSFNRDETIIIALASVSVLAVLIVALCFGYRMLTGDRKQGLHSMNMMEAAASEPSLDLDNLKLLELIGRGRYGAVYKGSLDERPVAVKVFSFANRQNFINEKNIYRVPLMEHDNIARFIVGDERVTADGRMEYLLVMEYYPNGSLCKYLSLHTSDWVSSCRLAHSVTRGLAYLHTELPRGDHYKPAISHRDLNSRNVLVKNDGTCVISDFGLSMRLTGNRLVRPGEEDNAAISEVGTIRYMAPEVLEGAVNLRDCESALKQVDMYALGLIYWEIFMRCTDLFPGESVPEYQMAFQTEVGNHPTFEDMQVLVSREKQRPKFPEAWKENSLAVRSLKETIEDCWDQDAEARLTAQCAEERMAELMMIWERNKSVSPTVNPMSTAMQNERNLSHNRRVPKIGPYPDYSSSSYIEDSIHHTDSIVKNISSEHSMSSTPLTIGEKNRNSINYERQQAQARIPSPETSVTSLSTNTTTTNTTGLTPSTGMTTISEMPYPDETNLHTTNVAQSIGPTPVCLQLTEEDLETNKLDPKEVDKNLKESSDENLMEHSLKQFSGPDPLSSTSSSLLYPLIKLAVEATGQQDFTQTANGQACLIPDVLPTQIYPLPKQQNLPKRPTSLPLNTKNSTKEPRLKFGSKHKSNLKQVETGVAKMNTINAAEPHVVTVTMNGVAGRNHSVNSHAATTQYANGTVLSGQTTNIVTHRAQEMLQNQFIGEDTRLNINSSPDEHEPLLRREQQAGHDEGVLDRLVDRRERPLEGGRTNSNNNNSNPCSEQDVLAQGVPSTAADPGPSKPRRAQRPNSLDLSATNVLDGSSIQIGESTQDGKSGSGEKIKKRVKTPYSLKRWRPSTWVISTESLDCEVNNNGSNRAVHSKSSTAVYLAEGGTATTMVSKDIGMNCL

[14] = tested on: Tyrosine-protein kinase ABL1 (Homo sapiens), P00519 [Q252H]; details: Compound concentration 1000.0 nM
[15] = molecular target: Mitogen-activated protein kinase 1 (Homo sapiens) (UniProt P28482); details: Compound concentration 1000.0 nM
Mitogen-activated protein kinase 1 (Homo sapiens), sequence (P28482 whole entry): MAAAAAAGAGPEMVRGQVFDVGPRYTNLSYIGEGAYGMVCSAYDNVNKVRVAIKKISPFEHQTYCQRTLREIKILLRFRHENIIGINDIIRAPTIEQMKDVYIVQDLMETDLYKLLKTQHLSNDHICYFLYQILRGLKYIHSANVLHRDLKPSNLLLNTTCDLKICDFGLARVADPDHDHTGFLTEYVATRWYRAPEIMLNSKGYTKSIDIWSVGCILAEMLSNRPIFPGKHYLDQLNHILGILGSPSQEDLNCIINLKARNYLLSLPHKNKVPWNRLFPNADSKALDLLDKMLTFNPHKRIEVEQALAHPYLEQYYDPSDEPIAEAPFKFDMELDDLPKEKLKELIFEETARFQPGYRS

[16] = tested on: Receptor-type tyrosine-protein kinase FLT3 (Homo sapiens), P36888 [R834Q]; details: Compound concentration 1000.0 nM
[17] = molecular target: GABA-A receptor; anion channel (Rattus norvegicus) (UniProt O09028+P15431+P18506+P18508+P19969+P20236+P23574+P23576+P28471+P28473+P30191+P62813+P63079+P63138+Q91ZM7+Q9ES14); assay: Cl- channel (GABA-gated) Eurofins-Cerep binding assay; format: protein-complex assay; parameters: ligand concentration 3 nM; details: filed as antagonist, Compound concentration 10.0 uM
[18] = molecular target: Casein kinase II subunit alpha' (Homo sapiens) (UniProt P19784); details: Compound concentration 1000.0 nM
[19] = molecular target: Mitogen-activated protein kinase kinase kinase 1 (Homo sapiens) (UniProt Q13233); details: Compound concentration 1000.0 nM
[20] = molecular target: Serine/threonine-protein kinase PAK 4 (Homo sapiens) (UniProt O96013); details: Compound concentration 1000.0 nM
[21] = molecular target: Tyrosine-protein kinase ABL2 (Homo sapiens) (UniProt P42684); details: Compound concentration 1000.0 nM
[22] = molecular target: Serine/threonine-protein kinase Nek1 (Homo sapiens) (UniProt Q96PY6); details: Compound concentration 1000.0 nM
[23] = molecular target: Phosphatidylinositol 4,5-bisphosphate 3-kinase catalytic subunit delta isoform (Homo sapiens) (UniProt O00329); details: Compound concentration 1000.0 nM
[24] = molecular target: Serine/threonine-protein kinase D1 (Homo sapiens) (UniProt Q15139); details: Compound concentration 1000.0 nM
[25] = molecular target: Aurora kinase B (Homo sapiens) (UniProt Q96GD4); details: Compound concentration 1000.0 nM
Aurora kinase B (Homo sapiens), sequence (Q96GD4 whole entry): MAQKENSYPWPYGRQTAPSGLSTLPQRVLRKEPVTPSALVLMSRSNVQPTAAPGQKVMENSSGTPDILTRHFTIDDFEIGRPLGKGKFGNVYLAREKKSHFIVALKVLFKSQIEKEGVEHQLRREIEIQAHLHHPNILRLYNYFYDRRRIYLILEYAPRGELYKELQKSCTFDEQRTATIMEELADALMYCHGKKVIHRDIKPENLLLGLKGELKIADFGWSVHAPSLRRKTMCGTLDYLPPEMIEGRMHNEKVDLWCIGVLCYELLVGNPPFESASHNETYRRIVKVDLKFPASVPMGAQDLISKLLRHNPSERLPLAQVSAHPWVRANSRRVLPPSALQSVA

[26] = molecular target: G protein-coupled receptor kinase 4 (Homo sapiens) (UniProt P32298); details: Compound concentration 1000.0 nM
[27] = molecular target: AP2-associated protein kinase 1 (Homo sapiens) (UniProt Q2M2I8); details: Compound concentration 1000.0 nM
[28] = tested on: Receptor-type tyrosine-protein kinase FLT3 (Homo sapiens), P36888 [UNDEFINED MUTATION]; details: Compound concentration 1000.0 nM
[29] = molecular target: Dual specificity tyrosine-phosphorylation-regulated kinase 1B (Homo sapiens) (UniProt Q9Y463); details: Compound concentration 1000.0 nM
[30] = molecular target: Activin receptor type-1B (Homo sapiens) (UniProt P36896); details: Compound concentration 1000.0 nM
Activin receptor type-1B (Homo sapiens), sequence (P36896 whole entry): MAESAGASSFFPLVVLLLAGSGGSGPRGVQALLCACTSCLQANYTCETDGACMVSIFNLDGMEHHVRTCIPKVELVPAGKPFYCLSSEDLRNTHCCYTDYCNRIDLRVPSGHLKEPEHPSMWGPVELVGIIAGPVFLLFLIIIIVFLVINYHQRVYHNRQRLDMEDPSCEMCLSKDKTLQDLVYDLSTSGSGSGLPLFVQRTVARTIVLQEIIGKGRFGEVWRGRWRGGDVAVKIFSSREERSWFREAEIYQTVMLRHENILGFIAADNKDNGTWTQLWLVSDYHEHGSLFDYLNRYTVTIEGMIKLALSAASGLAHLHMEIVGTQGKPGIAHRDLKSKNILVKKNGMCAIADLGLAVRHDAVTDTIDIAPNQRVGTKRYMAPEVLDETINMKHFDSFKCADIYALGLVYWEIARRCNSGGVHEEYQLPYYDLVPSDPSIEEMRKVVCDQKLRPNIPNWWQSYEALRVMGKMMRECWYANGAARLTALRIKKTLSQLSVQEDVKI

[31] = molecular target: Calcium/calmodulin-dependent protein kinase kinase 2 (Homo sapiens) (UniProt Q96RR4); details: Compound concentration 1000.0 nM
[32] = molecular target: cGMP-dependent protein kinase 2 (Homo sapiens) (UniProt Q13237); details: Compound concentration 1000.0 nM
cGMP-dependent protein kinase 2 (Homo sapiens), sequence (Q13237 whole entry): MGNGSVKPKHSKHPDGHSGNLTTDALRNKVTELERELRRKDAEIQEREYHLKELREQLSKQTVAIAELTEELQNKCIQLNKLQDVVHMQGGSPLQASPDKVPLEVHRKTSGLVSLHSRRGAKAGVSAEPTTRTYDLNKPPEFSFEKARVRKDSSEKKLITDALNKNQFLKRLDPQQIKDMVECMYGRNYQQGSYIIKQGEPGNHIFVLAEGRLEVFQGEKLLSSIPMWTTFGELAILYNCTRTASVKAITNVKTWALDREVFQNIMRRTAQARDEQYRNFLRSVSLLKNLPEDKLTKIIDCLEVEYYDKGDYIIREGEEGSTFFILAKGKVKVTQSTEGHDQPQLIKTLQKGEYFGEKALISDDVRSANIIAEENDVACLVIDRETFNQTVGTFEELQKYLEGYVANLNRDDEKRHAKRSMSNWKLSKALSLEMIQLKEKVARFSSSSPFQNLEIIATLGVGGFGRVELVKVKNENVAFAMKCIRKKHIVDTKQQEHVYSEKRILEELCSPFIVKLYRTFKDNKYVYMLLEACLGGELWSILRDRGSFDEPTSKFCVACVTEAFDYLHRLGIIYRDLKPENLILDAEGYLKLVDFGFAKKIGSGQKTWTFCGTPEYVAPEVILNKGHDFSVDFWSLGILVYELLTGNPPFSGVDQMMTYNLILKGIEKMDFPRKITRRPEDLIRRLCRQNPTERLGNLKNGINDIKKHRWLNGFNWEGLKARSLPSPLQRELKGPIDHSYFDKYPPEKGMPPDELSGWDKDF

[33] = tested on: Receptor-type tyrosine-protein kinase FLT3 (Homo sapiens), P36888 [K663Q]; details: Compound concentration 1000.0 nM
[34] = molecular target: Tyrosine-protein kinase TXK (Homo sapiens) (UniProt P42681); details: Compound concentration 1000.0 nM
Tyrosine-protein kinase TXK (Homo sapiens), sequence (P42681 whole entry): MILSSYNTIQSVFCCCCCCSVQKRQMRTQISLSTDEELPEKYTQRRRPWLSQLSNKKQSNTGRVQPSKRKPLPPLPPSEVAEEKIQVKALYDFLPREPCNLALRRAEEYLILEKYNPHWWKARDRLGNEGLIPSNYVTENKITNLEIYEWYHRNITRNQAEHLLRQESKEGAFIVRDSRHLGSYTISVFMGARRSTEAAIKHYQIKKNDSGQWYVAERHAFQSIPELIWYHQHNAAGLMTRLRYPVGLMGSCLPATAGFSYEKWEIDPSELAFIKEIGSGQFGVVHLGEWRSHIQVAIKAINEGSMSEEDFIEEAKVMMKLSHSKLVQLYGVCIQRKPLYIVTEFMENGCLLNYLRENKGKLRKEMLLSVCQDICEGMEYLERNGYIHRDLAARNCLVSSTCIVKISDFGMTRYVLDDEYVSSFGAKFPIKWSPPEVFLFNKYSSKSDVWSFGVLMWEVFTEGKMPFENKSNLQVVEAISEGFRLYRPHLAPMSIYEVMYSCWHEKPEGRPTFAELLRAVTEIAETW

[35] = tested on: Proto-oncogene tyrosine-protein kinase receptor Ret (Homo sapiens), P07949 [V804L]; details: Compound concentration 1000.0 nM
[36] = molecular target: Serine/threonine-protein kinase/endoribonuclease IRE1 (Homo sapiens) (UniProt O75460); details: Compound concentration 1000.0 nM

Delta-type opioid receptor (Homo sapiens), sequence (P41143 whole entry): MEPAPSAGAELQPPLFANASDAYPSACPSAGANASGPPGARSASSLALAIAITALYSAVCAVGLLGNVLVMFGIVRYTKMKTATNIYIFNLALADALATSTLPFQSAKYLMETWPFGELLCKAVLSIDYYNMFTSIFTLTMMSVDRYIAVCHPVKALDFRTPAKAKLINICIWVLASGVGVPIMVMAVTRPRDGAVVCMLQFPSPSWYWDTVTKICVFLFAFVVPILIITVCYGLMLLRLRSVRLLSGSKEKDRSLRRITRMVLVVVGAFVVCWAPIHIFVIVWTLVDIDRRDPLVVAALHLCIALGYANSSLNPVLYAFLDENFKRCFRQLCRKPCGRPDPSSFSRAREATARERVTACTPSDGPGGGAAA

Compound | residual activity [1] | % Inhibition of Control Specific Binding (Mean n=2) [2] | residual activity [3] | residual activity [4] | residual activity [5] | % Inhibition of Control Specific Binding (Mean n=2) [6] | residual activity [7] | residual activity [8] | residual activity [9] | residual activity [10] | residual activity [11] | residual activity [12] | residual activity [13] | residual activity [14] | residual activity [15] | residual activity [16] | % Inhibition of Control Specific Binding (Mean n=2) [17] | residual activity [18] | residual activity [19] | residual activity [20] | other results
CCCOc1ccc([C@@H]2[C@@H](C(=O)O)[C@H](c3ccc4c(c3)OCO4)CN2CC(=O)Nc2c(CC)cccc2CC)cc1 [A-1806262] | 100% | 23.5% | 100% | 88% | 87% | 0.9% | 84% | 100% | 100% | 100% | 88% | 86% | 69% | 92% | 100% | 100% | 60.8% | 83% | 80% | 91% | residual activity [21]: 96%; residual activity [22]: 100%; residual activity [23]: 90%; residual activity [24]: 96%; residual activity [25]: 77%; residual activity [26]: 100%; residual activity [27]: 90%; residual activity [28]: 91%; residual activity [29]: 99%; residual activity [30]: 90%; residual activity [31]: 84%; residual activity [32]: 83%; residual activity [33]: 100%; residual activity [34]: 100%; residual activity [35]: 97%; residual activity [36]: 90%
CCCOc1ccc([C@H]2[C@H](C(=O)O)[C@@H](c3ccc4c(c3)OCO4)CN2CC(=O)Nc2c(CC)cccc2CC)cc1 [A-192621] | 69% | 33.5% | 90% | 86% | 72% | 10% | 100% | 76% | 97% | 86% | 95% | 98% | 53% | 61% | 100% | 91% | 77.4% | 87% | 71% | 91% | residual activity [21]: 100%; residual activity [22]: 87%; residual activity [23]: 75%; residual activity [24]: 94%; residual activity [25]: 72%; residual activity [26]: 100%; residual activity [27]: 95%; residual activity [28]: 81%; residual activity [29]: 100%; residual activity [30]: 99%; residual activity [31]: 93%; residual activity [32]: 82%; residual activity [33]: 100%; residual activity [34]: 85%; residual activity [35]: 93%; residual activity [36]: 86%
